Key:
Assay in all cases: cells
COLO-824 = type: functional, cell-based, Homo sapiens; conditions: Homo sapiens, COLO-824
Description: SANGER: Inhibition of human COLO-824 cell growth in a cell viability assay.

COR-L105 = type: functional, cell-based, Homo sapiens; conditions: Homo sapiens, COR-L105;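 note: cell growth inhibition determined with a viability assay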
Description: SANGER: Inhibition of human COR-L105 cell growth in a cell viability assay.

COR-L88 = type: functional, cell-based; conditions: Homo sapiens;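 note: growth inhibition of COR-L88 cells, read out with a cell viability assay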
Description: SANGER: Inhibition of human COR-L88 cell growth in a cell viability assay.

CP66-MEL = type: functional, cell-based, Homo sapiens; conditions: Homo sapiens, CP66-MEL;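 note: growth inhibition of CP66-MEL cells determined in a cell viability assay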
Description: SANGER: Inhibition of human CP66-MEL cell growth in a cell viability assay.

CW-2 = type: functional, cell-based, Homo sapiens; conditions: Homo sapiens, CW-2;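 note: growth inhibition of CW-2 cells, read out by a cell viability assay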
Description: SANGER: Inhibition of human CW-2 cell growth in a cell viability assay.

D-247MG = type: functional, cell-based, Homo sapiens; conditions: Homo sapiens, D-247MG
Description: SANGER: Inhibition of human D-247MG cell growth in a cell viability assay.

DBTRG-05MG = type: functional, cell-based, Homo sapiens; conditions: Homo sapiens, DBTRG-05MG;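 note: cell viability assay measuring growth inhibition of human DBTRG-05MG cells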
Description: SANGER: Inhibition of human DBTRG-05MG cell growth in a cell viability assay.

DMS-114 = type: functional, cell-based, Homo sapiens; conditions: Homo sapiens, DMS-114
DoTc2-4510 = type: functional, cell-based, Homo sapiens; conditions: Homo sapiens, DoTc2-4510
ES3 = type: functional, cell-based, Homo sapiens; conditions: Homo sapiens, ES3;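 note: growth inhibition of ES3 cells, read out with a cell viability assay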
Description: SANGER: Inhibition of human ES3 cell growth in a cell viability assay.

EW-16 = type: functional, cell-based, Homo sapiens; conditions: Homo sapiens, EW-16;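 note: growth inhibition of human EW-16 cells, read out as cell viability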
Description: SANGER: Inhibition of human EW-16 cell growth in a cell viability assay.

G-401 = type: functional, cell-based, Homo sapiens; conditions: Homo sapiens, G-401
Description: SANGER: Inhibition of human G-401 cell growth in a cell viability assay.

GI-1 = type: functional, cell-based, Homo sapiens; conditions: Homo sapiens, GI-1;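 note: growth inhibition of human GI-1 cells, measured with a cell viability readout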
Description: SANGER: Inhibition of human GI-1 cell growth in a cell viability assay.

GP5d = type: functional, cell-based, Homo sapiens; conditions: Homo sapiens, GP5d;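 note: growth inhibition of human GP5d cells, read out with a cell viability assay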
Description: SANGER: Inhibition of human GP5d cell growth in a cell viability assay.

HD-MY-Z = type: functional, cell-based, Homo sapiens; conditions: Homo sapiens, HD-MY-Z;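 note: growth inhibition of HD-MY-Z cells, read out with a cell viability assay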
Description: SANGER: Inhibition of human HD-MY-Z cell growth in a cell viability assay.

HT-1376 = type: functional, cell-based, Homo sapiens; conditions: Homo sapiens, HT-1376
Description: SANGER: Inhibition of human HT-1376 cell growth in a cell viability assay.

Huh-7 = type: functional, cell-based, Homo sapiens; conditions: Homo sapiens, Huh-7;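 note: HuH-7 cell growth inhibition, read out with a cell viability assay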
Description: SANGER: Inhibition of human HuH-7 cell growth in a cell viability assay.

IST-MES1 = type: functional, cell-based, Homo sapiens; conditions: Homo sapiens, IST-MES1;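 note: growth inhibition of IST-MES1 cells, measured with a cell viability assay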
Description: SANGER: Inhibition of human IST-MES1 cell growth in a cell viability assay.

K562 = type: functional, cell-based; conditions: Homo sapiens
Description: SANGER: Inhibition of human K-562 cell growth in a cell viability assay.

K5 = type: functional, cell-based, Homo sapiens; conditions: Homo sapiens, K5
Description: SANGER: Inhibition of human K5 cell growth in a cell viability assay.

LB2518-MEL = type: functional, cell-based, Homo sapiens; conditions: Homo sapiens, LB2518-MEL;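 note: growth inhibition of human LB2518-MEL cells, measured with a cell viability assay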
Description: SANGER: Inhibition of human LB2518-MEL cell growth in a cell viability assay.

LB771-HNC = type: functional, cell-based, Homo sapiens; conditions: Homo sapiens, LB771-HNC;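 note: growth inhibition of LB771-HNC human cells, read out with a cell viability assay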
Description: SANGER: Inhibition of human LB771-HNC cell growth in a cell viability assay.

M14 = type: functional, cell-based, Homo sapiens; conditions: Homo sapiens, M14;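 note: growth inhibition of M14 cells, read out with a cell viability assay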
Description: SANGER: Inhibition of human M14 cell growth in a cell viability assay.

MDA-MB-175-VII = type: functional, cell-based, Homo sapiens; conditions: Homo sapiens, MDA-MB-175-VII
MMAC-SF = type: functional, cell-based, Homo sapiens; conditions: Homo sapiens, MMAC-SF;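 note: growth inhibition of human MMAC-SF cells, read out with a cell viability assay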
Description: SANGER: Inhibition of human MMAC-SF cell growth in a cell viability assay.

MN-60 = type: functional, cell-based; conditions: Homo sapiens;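 note: growth inhibition of the MN-60 cell line, determined with a cell viability assay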
Description: SANGER: Inhibition of human MN-60 cell growth in a cell viability assay.

NB13 = type: functional, cell-based, Homo sapiens; conditions: Homo sapiens, NB13;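 note: cell viability readout measuring growth inhibition of human NB13 cells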
Description: SANGER: Inhibition of human NB13 cell growth in a cell viability assay.

NB69 = type: functional, cell-based, Homo sapiens; conditions: Homo sapiens, NB69;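 note: growth inhibition of NB69 cells, determined by a cell viability assay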
Description: SANGER: Inhibition of human NB69 cell growth in a cell viability assay.

NCI-H1563 = type: functional, cell-based, Homo sapiens; conditions: Homo sapiens, NCI-H1563;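 note: growth inhibition of human NCI-H1563 cells, read out with a cell viability assay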
Description: SANGER: Inhibition of human NCI-H1563 cell growth in a cell viability assay.

NCI-H1650 = type: functional, cell-based, Homo sapiens; conditions: Homo sapiens, NCI-H1650;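 note: growth inhibition of human NCI-H1650 cells measured by a cell viability assay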
Description: SANGER: Inhibition of human NCI-H1650 cell growth in a cell viability assay.

NCI-H23 = type: functional, cell-based, Homo sapiens; conditions: Homo sapiens, NCI-H23;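 note: cell viability assay measuring growth inhibition of NCI-H23 cells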
Description: SANGER: Inhibition of human NCI-H23 cell growth in a cell viability assay.

NCI-H596 = type: functional, cell-based, Homo sapiens; conditions: Homo sapiens, NCI-H596;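 note: growth inhibition of NCI-H596 cells, read out with a cell viability assay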
Description: SANGER: Inhibition of human NCI-H596 cell growth in a cell viability assay.

NCI-N87 = type: functional, cell-based, Homo sapiens; conditions: Homo sapiens, NCI-N87;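 note: growth inhibition of human NCI-N87 cells, read out with a cell viability assay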
Description: SANGER: Inhibition of human NCI-N87 cell growth in a cell viability assay.

OAW-28 = type: functional, cell-based, Homo sapiens; conditions: Homo sapiens, OAW-28;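 note: growth inhibition of OAW-28 cells, read out with a cell viability assay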
Description: SANGER: Inhibition of human OAW-28 cell growth in a cell viability assay.

P30-OHK = type: functional, cell-based; conditions: Homo sapiens;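 note: growth inhibition of the P30-OHK cell line, read out with a cell viability assay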
Description: SANGER: Inhibition of human P30-OHK cell growth in a cell viability assay.

PANC-03-27 = type: functional, cell-based, Homo sapiens; conditions: Homo sapiens, PANC-03-27
Description: SANGER: Inhibition of human PANC-03-27 cell growth in a cell viability assay.

SF-268 = type: functional, cell-based, Homo sapiens; conditions: Homo sapiens, SF-268;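 note: growth inhibition of SF-268 cells determined with a cell viability assay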
Description: SANGER: Inhibition of human SF268 cell growth in a cell viability assay.

SK-N-FI = type: functional, cell-based, Homo sapiens; conditions: Homo sapiens, SK-N-FI;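 note: cell viability assay measuring growth inhibition of human SK-N-FI cells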
Description: SANGER: Inhibition of human SK-N-FI cell growth in a cell viability assay.

SW1710 = type: functional, cell-based, Homo sapiens; conditions: Homo sapiens, SW1710;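 note: growth inhibition of SW1710 cells, determined with a cell viability assay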
Description: SANGER: Inhibition of human SW1710 cell growth in a cell viability assay.

SW1990 = type: functional, cell-based, Homo sapiens; conditions: Homo sapiens, SW1990;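 note: cell growth inhibition determined with a viability assay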
Description: SANGER: Inhibition of human SW1990 cell growth in a cell viability assay.

T84 = type: functional, cell-based, Homo sapiens; conditions: Homo sapiens, T84;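 note: growth inhibition measured with a cell viability readout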
Description: SANGER: Inhibition of human T84 cell growth in a cell viability assay.

A 172 = type: functional, cell-based, Homo sapiens; conditions: Homo sapiens, A 172;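 note: growth inhibition of A172 cells, measured with a cell viability readout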
Description: SANGER: Inhibition of human A172 cell growth in a cell viability assay.

ACHN = type: functional, cell-based, Homo sapiens; conditions: Homo sapiens, ACHN;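 note: cell viability read-out used to gauge how strongly growth of human ACHN cells is suppressed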
Description: SANGER: Inhibition of human ACHN cell growth in a cell viability assay.

AU565 = type: functional, cell-based, Homo sapiens; conditions: Homo sapiens, AU565;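 note: cell viability assay measuring growth inhibition of human AU565 cells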
Description: SANGER: Inhibition of human AU565 cell growth in a cell viability assay.

ASPC1 = type: functional, cell-based, Homo sapiens; conditions: Homo sapiens, ASPC1;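 note: growth inhibition of AsPC-1 cells, read out with a cell viability assay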
Description: SANGER: Inhibition of human AsPC-1 cell growth in a cell viability assay.

CAL-120 = type: functional, cell-based, Homo sapiens; conditions: Homo sapiens, CAL-120;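 note: cell growth inhibition, read out as cell viability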
Description: SANGER: Inhibition of human CAL-120 cell growth in a cell viability assay.

U-118-MG = type: functional, cell-based, Homo sapiens; conditions: Homo sapiens, U-118-MG
Description: SANGER: Inhibition of human U-118-MG cell growth in a cell viability assay.

UMUC3 = type: functional, cell-based, Homo sapiens; conditions: Homo sapiens, UMUC3;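 note: growth inhibition of human UM-UC-3 cells, read out with a cell viability assay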
Description: SANGER: Inhibition of human UM-UC-3 cell growth in a cell viability assay.

VA-ES-BJ = type: functional, cell-based, Homo sapiens; conditions: Homo sapiens, VA-ES-BJ;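 note: growth inhibition of the VA-ES-BJ cell line, read out by a cell viability assay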
Description: SANGER: Inhibition of human VA-ES-BJ cell growth in a cell viability assay.

Question: What does the source list for `CC(=O)O[C@@]12CO[C@@H]1C[C@H](O)[C@@]1(C)C(=O)[C@H](O)C3=C(C)[C@@H](OC(=O)[C@H](O)[C@@H](NC(=O)OC(C)(C)C)c4ccccc4)C[C@@](O)([C@@H](OC(=O)c4ccccc4)[C@H]21)C3(C)C` [DOCETAXEL]?
Answer: IC50 (COLO-824): 5.9 nM; IC50 (COR-L105): > 10 nM; IC50 (COR-L88): > 10 nM; IC50 (CP66-MEL): 3 nM; IC50 (CW-2): > 10 nM; IC50 (D-247MG): 1.73 nM; IC50 (DBTRG-05MG): 9.17 nM; IC50 (DMS-114): 6.96 nM; IC50 (DoTc2-4510): > 10 nM; IC50 (ES3): 2.77 nM; IC50 (EW-16): 1.35 nM; IC50 (G-401): 1.27 nM; IC50 (GI-1): 0.528 nM; IC50 (GP5d): 2.96 nM; IC50 (HD-MY-Z): 1.41 nM; IC50 (HT-1376): > 10 nM; IC50 (Huh-7): > 10 nM; IC50 (IST-MES1): 8.4 nM; IC50 (K562): > 10 nM; IC50 (K5): 0.778 nM; IC50 (LB2518-MEL): > 10 nM; IC50 (LB771-HNC): > 10 nM; IC50 (M14): 1.91 nM; IC50 (MDA-MB-175-VII): > 10 nM; IC50 (MMAC-SF): 5.86 nM; IC50 (MN-60): > 10 nM; IC50 (NB13): 1.07 nM; IC50 (NB69): 6.29 nM; IC50 (NCI-H1563): > 10 nM; IC50 (NCI-H1650): > 10 nM; IC50 (NCI-H23): 3.64 nM; IC50 (NCI-H596): > 10 nM; IC50 (NCI-N87): > 10 nM; IC50 (OAW-28): > 10 nM; IC50 (P30-OHK): > 10 nM; IC50 (PANC-03-27): 1.54 nM; IC50 (SF-268): 1.21 nM; IC50 (SK-N-FI): > 10 nM; IC50 (SW1710): 0.466 nM; IC50 (SW1990): > 10 nM; IC50 (T84): > 10 nM; IC50 (A 172): 1.63 nM; IC50 (ACHN): > 10 nM; IC50 (AU565): 1.81 nM; IC50 (ASPC1): 6.83 nM; IC50 (CAL-120): 4.35 nM; IC50 (U-118-MG): > 10 nM; IC50 (UMUC3): > 10 nM; IC50 (VA-ES-BJ): 0.375 nM

Question: With `COc1cc([C@@H]2c3cc4c(cc3[C@@H](O[C@@H]3O[C@@H]5CO[C@@H](C)O[C@H]5[C@H](O)[C@H]3O)[C@H]3COC(=O)[C@H]23)OCO4)cc(OC)c1O` [ETOPOSIDE] as the molecule, how does the IC50 (COLO-824) read?
Answer: Its IC50 is greater than 16000 nM.

Question: What about the IC50 (COR-L105) of the same molecule?
Answer: Its IC50 is 9570 nM.

Question: What about the IC50 (COR-L88) of the same molecule?
Answer: The IC50 was greater than 16000 nM.

Question: What about the IC50 (CP66-MEL) of the same molecule?
Answer: Its IC50 is 6250 nM.

Question: And the IC50 (CW-2)?
Answer: The IC50 was greater than 16000 nM.

Question: What about the IC50 (D-247MG) of the same molecule?
Answer: Its IC50 is greater than 16000 nM.

Question: What about the IC50 (DBTRG-05MG) of the same molecule?
Answer: Its IC50 is 2630 nM.

Question: What about the IC50 (DMS-114) of the same molecule?
Answer: Its IC50 is greater than 16000 nM.

Question: What about the IC50 (DoTc2-4510) of the same molecule?
Answer: Its IC50 is 1050 nM.

Question: And the IC50 (ES3)?
Answer: The IC50 was 628 nM.

Question: And the IC50 (EW-16)?
Answer: Its IC50 is 21.5 nM.

Question: And the IC50 (G-401)?
Answer: Its IC50 is 1440 nM.

Question: What about the IC50 (GI-1) of the same molecule?
Answer: The IC50 was 713 nM.

Question: And the IC50 (GP5d)?
Answer: The IC50 was 5830 nM.

Question: What about the IC50 (HD-MY-Z) of the same molecule?
Answer: The IC50 was 8540 nM.

Question: And the IC50 (HT-1376)?
Answer: Its IC50 is 5820 nM.

Question: What about the IC50 (Huh-7) of the same molecule?
Answer: The IC50 was 2560 nM.

Question: What about the IC50 (IST-MES1) of the same molecule?
Answer: The IC50 was greater than 16000 nM.

Question: And the IC50 (K562)?
Answer: Its IC50 is greater than 16000 nM.

Question: What about the IC50 (K5) of the same molecule?
Answer: Its IC50 is greater than 16000 nM.

Question: What about the IC50 (LB2518-MEL) of the same molecule?
Answer: Its IC50 is greater than 16000 nM.

Question: What about the IC50 (LB771-HNC) of the same molecule?
Answer: Its IC50 is greater than 16000 nM.

Question: And the IC50 (M14)?
Answer: Its IC50 is 7950 nM.

Question: And the IC50 (MDA-MB-175-VII)?
Answer: Its IC50 is greater than 16000 nM.

Question: What about the IC50 (MMAC-SF) of the same molecule?
Answer: Its IC50 is 6880 nM.

Question: What about the IC50 (MN-60) of the same molecule?
Answer: Its IC50 is greater than 16000 nM.

Question: And the IC50 (NB13)?
Answer: The IC50 was 2760 nM.

Question: And the IC50 (NB69)?
Answer: Its IC50 is 1090 nM.

Question: What about the IC50 (NCI-H1563) of the same molecule?
Answer: The IC50 was 7070 nM.

Question: What about the IC50 (NCI-H1650) of the same molecule?
Answer: Its IC50 is 1740 nM.

Question: What about the IC50 (NCI-H23) of the same molecule?
Answer: Its IC50 is 13200 nM.

Question: What about the IC50 (NCI-H596) of the same molecule?
Answer: Its IC50 is greater than 16000 nM.

Question: What about the IC50 (NCI-N87) of the same molecule?
Answer: The IC50 was 15800 nM.

Question: And the IC50 (OAW-28)?
Answer: The IC50 was 2150 nM.

Question: And the IC50 (P30-OHK)?
Answer: Its IC50 is 1210 nM.

Question: What about the IC50 (PANC-03-27) of the same molecule?
Answer: The IC50 was 1640 nM.

Question: What about the IC50 (SF-268) of the same molecule?
Answer: Its IC50 is 2550 nM.

Question: What about the IC50 (SK-N-FI) of the same molecule?
Answer: The IC50 was greater than 16000 nM.

Question: And the IC50 (SW1710)?
Answer: Its IC50 is 518 nM.

Question: What about the IC50 (SW1990) of the same molecule?
Answer: The IC50 was 5640 nM.

Question: What about the IC50 (T84) of the same molecule?
Answer: Its IC50 is greater than 16000 nM.

Question: What about the IC50 (A 172) of the same molecule?
Answer: Its IC50 is 8650 nM.

Question: What about the IC50 (ACHN) of the same molecule?
Answer: The IC50 was 839 nM.

Question: And the IC50 (AU565)?
Answer: The IC50 was 2610 nM.

Question: And the IC50 (ASPC1)?
Answer: The IC50 was greater than 16000 nM.

Question: What about the IC50 (CAL-120) of the same molecule?
Answer: Its IC50 is 15600 nM.

Question: What about the IC50 (U-118-MG) of the same molecule?
Answer: The IC50 was greater than 16000 nM.

Question: And the IC50 (UMUC3)?
Answer: The IC50 was 1150 nM.

Question: And the IC50 (VA-ES-BJ)?
Answer: The IC50 was 415 nM.

From ChEMBL document CHEMBL1201861, “Genomics of Drug Sensitity in Cancer screening data, Wellcome Trust Sanger Institute”
